{"source": "patent US20160177261A1", "about": "“METHODS OF INDUCING AND PREVENTING NEUROFIBROMATOSIS IN SCHWANN CELLS” (University of Central Florida Research Foundation, Inc., priority 2007, published 2016)", "type_in_all_cases": "cell-based, rat", "key": {"[1]": {"tested_on": "P-CREB", "assay": "Western blot of phosphorylated CREB in subconfluent SCs", "procedure": "(§1) FIG. 3: NRG1 stimulates phosphorylation of Sch by PKA. A, C) Subconfluent SC cultures grown on PLL were serum-starved overnight and were stimulated for 30 minutes with NRG1 (10 ng/ml) in the absence and presence of AG825 (1 μM). Western blot analysis was used to determine the levels of phosphorylated and total ErbB2, Sch, and Pak. B, D) Quantification of the western blots of starved (D0.5), NRG1 stimulated (NRG) and NRG1 plus AG825 (N+A) stimulated cultures is shown. E) Subconfluent SCs grown as above were stimulated for 30 minutes with NRG in the presence and absence of PKI 14-22 (50 nM), and with forskolin (FSK; 2 μM) alone. F) Quantification of the Western blots for ErbB2, Sch, and Pak in starved (D0.5) cultures, and in those stimulated with NRG1 (NRG), NRG1 with PKI 14-22 (N+P), and forskolin (FSK) is shown. […]\n(§2) Subconfluent SC cultures grown on PLL were serum-starved overnight and were stimulated for 30 minutes with NRG1 (10 ng/ml) and laminin-1 ([…]) together, in the absence and presence of AG825 (1 μM). […] Total protein expression was analyzed using antibodies against Sch (Sch-C18), Pak, β1 integrin, and ErbB2. B, D, F) Quantification of the expression levels of phosphorylated forms of Sch (PS518-Sch) and Pak (P-Pak) were assessed in starved (D0.5), NRG1 and laminin-1 stimulated (NRG+Lam), and NRG1 plus laminin-1 and AG825 (N+L+A) stimulated cultures. […]"}, "[2]": {"tested_on": "PS518-Sch", "assay": "Western blot densitometry of Sch-S518 phosphorylation in subconfluent SCs", "procedure": "(§3) FIG. 3: NRG1 stimulates phosphorylation of Sch by PKA. A, C) Subconfluent SC cultures grown on PLL were serum-starved overnight and were stimulated for 30 minutes with NRG1 (10 ng/ml) in the absence and presence of AG825 (1 μM). Western blot analysis was used to determine the levels of phosphorylated and total ErbB2, Sch, and Pak. B, D) Quantification of the western blots of starved (D0.5), NRG1 stimulated (NRG) and NRG1 plus AG825 (N+A) stimulated cultures is shown. E) Subconfluent SCs grown as above were stimulated for 30 minutes with NRG in the presence and absence of PKI 14-22 (50 nM), and with forskolin (FSK; 2 μM) alone. F) Quantification of the Western blots for ErbB2, Sch, and Pak in starved (D0.5) cultures, and in those stimulated with NRG1 (NRG), NRG1 with PKI 14-22 (N+P), and forskolin (FSK) is shown. GAPDH was used as a loading control for all blots. The graphs represent the average fold increase in each condition in three or more experiments. Error bars represent the SEM for each condition. P values are <0.05(*) with respect to starved SCs or as indicated.\n(§4) FIG. 4: Soluble Laminin-1 Stimulates Phosphorylation of Sch. A, C) Subconfluent SC cultures grown on PLL were stimulated with laminin-1 (10 μg/ml) for 30 minutes after overnight serum starvation. Western blot analysis using antibodies specific for the phosphorylated forms of Sch (PS518-Sch) and Pak (P-Pak) and antibodies against total Sch (Sch-C18), Pak, and β1 integrin are shown. B, D). Quantification of Western blots for starved (D0.5) and laminin-1 stimulated (Lam) cultures is shown. The graphs represent the average fold increase in each condition observed in three or more experiments. GAPDH was used as a loading control for all blots. Error bars represent the SEM for each condition. P values are <0.05(*) and <0.01(**).\nSubconfluent SC cultures grown on PLL were serum-starved overnight and were stimulated for 30 minutes with NRG1 (10 ng/ml) and laminin-1 ([…]) together, in the absence and presence of AG825 (1 μM). A, C, E, G) Western blot analyses were conducted using phospho-specific antibodies for Sch (PS518-Sch), Pak (P-Pak), and CREB (P-CREB). Total protein expression was analyzed using antibodies against Sch (Sch-C18), Pak, β1 integrin, and ErbB2. B, D, F) Quantification of the expression levels of phosphorylated forms of Sch (PS518-Sch) and Pak (P-Pak) were assessed in starved (D0.5), NRG1 and laminin-1 stimulated (NRG+Lam), and NRG1 plus laminin-1 and AG825 (N+L+A) stimulated cultures. The amount of total Sch (Sch-C18), Pak, β1 integrin, and ErbB2 proteins were measured by densitometry. GAPDH was used as a loading control. The graphs represent the average fold increase in each condition in three or more experiments. Error bars represent the SEM for each condition. […]"}, "[3]": {"tested_on": "Sch", "assay": "Western blot densitometry of total Sch (Sch-C18) protein in subconfluent SCs", "details": "NRG1 and laminin-1 30 min in the presence and absence of AG825", "procedure": "as §4\nas §2, with “cultures. The amount of total Sch (Sch-C18), Pak, β1 integrin, and ErbB2 proteins were measured by densitometry.” for “cultures.”"}, "[4]": {"tested_on": "β1 integrin", "assay": "Western blot densitometry of total β1 integrin protein in subconfluent SCs", "procedure": "as §4\nFIG. 6: β1 integrin and ErbB2 Exist as a Complex on the Plasma Membrane. A) Subconfluent SC cultures grown on PLL and laminin-1 were starved overnight and were stimulated with NRG1 for 30 minutes. SCs were triple-labeled with the indicated antibodies to assess protein co-localization. […] E) Quantification of total β1 integrin and ErbB2 expression was assessed by densitometry in starved (D0.5), NRG1 stimulated (NRG) and NRG with AG825 (N+A) stimulated cultures. […] G) Quantification of total β1 integrin and ErbB2 expression in starved (D0.5), laminin-stimulated (Lam) and laminin+AG825 (L+A) stimulated cultures is shown. […]\nas §2, with “cultures. The amount of total Sch (Sch-C18), Pak, β1 integrin, and ErbB2 proteins were measured by densitometry.” for “cultures.”"}, "[5]": {"tested_on": "Pak", "assay": "Western blot densitometry of total Pak protein in subconfluent SCs", "details": "NRG1 and laminin-1 30 min in the presence and absence of AG825", "procedure": "as §4\nas §2, with “cultures. The amount of total Sch (Sch-C18), Pak, β1 integrin, and ErbB2 proteins were measured by densitometry.” for “cultures.”"}, "[6]": {"tested_on": "ErbB2", "assay": "Western blot densitometry of total ErbB2 protein in subconfluent SCs", "procedure": "as §3, with “Error bars represent the SEM for each condition. P values are <0.05(*) with respect to starved SCs or as indicated.” left out\nFIG. 6: β1 integrin and ErbB2 Exist as a Complex on the Plasma Membrane. […] E) Quantification of total β1 integrin and ErbB2 expression was assessed by densitometry in starved (D0.5), NRG1 stimulated (NRG) and NRG with AG825 (N+A) stimulated cultures. […] G) Quantification of total β1 integrin and ErbB2 expression in starved (D0.5), laminin-stimulated (Lam) and laminin+AG825 (L+A) stimulated cultures is shown. […]"}, "[7]": {"tested_on": "P-Pak", "assay": "Western blot densitometry of phosphorylated Pak in subconfluent SCs", "procedure": "as §1\nFIG. 4: Soluble Laminin-1 Stimulates Phosphorylation of Sch. […] Quantification of Western blots for starved (D0.5) and laminin-1 stimulated (Lam) cultures is shown. […]\nSubconfluent SC cultures grown on PLL were serum-starved overnight and were stimulated for 30 minutes with NRG1 (10 ng/ml) and laminin-1 ([…]) together, in the absence and presence of AG825 (1 μM). […] Total protein expression was analyzed using antibodies against Sch (Sch-C18), Pak, β1 integrin, and ErbB2. […] The amount of total Sch (Sch-C18), Pak, β1 integrin, and ErbB2 proteins were measured by densitometry. […]"}, "[8]": {"tested_on": "P-ErbB2", "assay": "Western blot densitometry of phosphorylated ErbB2 in subconfluent SCs", "details": "NRG1 10 ng/ml 30 min with AG825 (1 μM)", "procedure": "as §3, with “P values are <0.05(*) with respect to starved SCs or as indicated.” left out\nPrimary rat SCs were grown to approximately 60% confluency on PLL coated dishes. […] Following extraction, the SC lysate was measured for protein concentration, and […] of total SC lysate was separated by SDS-PAGE and was transferred to PVDF membranes. […] Bands intensities were quantified and normalized to GAPDH, and to their respective total proteins for phosphorylated forms. […]"}, "[9]": {"details": "AG825 in the absence of NRG1 (data not shown)"}, "[10]": {"details": "NRG1 and laminin-1 30 min in the presence of AG825 (1 μM), compared to starved SCs"}}, "note": "Entries after “also recorded” stand apart in the source; their conditions may differ.", "data": [{"smiles": "COc1cc(/C=C(\\C#N)C(N)=O)cc(CSc2nc3ccccc3s2)c1O", "note": "[AG825]", "values": [{"measurement": "effect on NRG1 stimulated CREB phosphorylation", "setting": "[1]; NRG1 30 min with inhibitor (AG825 or PKI 14-22 50 nM)", "value": "inhibit this phosphorylation"}, {"measurement": "effect on CREB phosphorylation in dually stimulated SCs", "setting": "[1]; NRG1 and laminin-1 30 min with AG825 (1 μM)", "value": "inhibited phosphorylation of CREB; also recorded: eliminated"}, {"measurement": "effect on basal level of phosphorylated Sch", "setting": "[2]; [9]", "value": "increases basal levels"}, {"measurement": "reduction of Sch-S518 phosphorylation in response to NRG1", "setting": "[2]; NRG1 10 ng/ml 30 min with inhibitor (AG825 1 μM or PKI 14-22 50 nM)", "value": 50, "unit": "%"}, {"measurement": "effect on NRG1 stimulated Sch-S518 phosphorylation", "setting": "[2]; NRG1 30 min with inhibitor (AG825 1 μM or PKI 14-22 50 nM)", "value": "reduced"}, {"measurement": "PS518-Sch fold increase", "setting": "[2]; [10]", "value": 4.6, "unit": "fold"}, {"measurement": "effect on Sch protein levels", "setting": "[3]", "value": "not significantly changed"}, {"measurement": "effect on NRG1 induced increase of β1 integrin protein levels", "setting": "[4]; NRG1 30 min with AG825 (1 μM)", "value": "suppressed NRG1's effect; also recorded: inhibits the increase in β1 integrin"}, {"measurement": "effect on β1 integrin protein levels", "setting": "[4]; NRG1 and laminin-1 30 min in the presence and absence of AG825", "value": "not significantly changed"}, {"measurement": "decrease in β1 integrin levels", "setting": "[4]; laminin-1 30 min with AG825 (1 μM)", "value": 50, "unit": "%"}, {"measurement": "effect on Pak protein levels", "setting": "[5]", "value": "not significantly changed"}, {"measurement": "effect on NRG1 induced change of ErbB2 protein levels", "setting": "[6]; NRG1 30 min with AG825 (1 μM)", "value": "attenuated the reduction in ErbB2 levels; also recorded: suppressed NRG1's effect; also recorded: attenuates the loss of ErbB2 protein"}, {"measurement": "effect on ErbB2 levels", "setting": "[6]; laminin-1 30 min with AG825 (1 μM), with respect to laminin-stimulated SCs", "value": "did not alter"}, {"measurement": "effect on basal level of phosphorylated Pak", "setting": "[7]; [9]", "value": "increases basal levels"}, {"measurement": "P-Pak fold increase", "setting": "[7]; [10]", "value": 3.1, "unit": "fold"}, {"measurement": "effect on NRG1 stimulated phosphorylation of ErbB2", "setting": "[8]", "value": "reduced NRG1 stimulated phosphorylation of ErbB2 significantly"}]}]}
